How the values were obtained:
Type IV PDE = test: PDE inhibitory activity, type IV isozyme (3H-cAMP hydrolysis); assay type: biochemical; conditions: partially purified from rat neutrophils, 30° C., 30 minutes
Method: Type I, III, IV, and V PDE isozymes were prepared to study the PDE inhibitory activities and selectivities with the compound of the invention [Trends Pharmacol. Sci., 12, 19-27 (1992)]. Type I PDE was purchased from Sigma Corp. Type III, IV, and V PDE isozymes were partially purified from rats platelets (Type III and V) or neutrophils (Type IV). Each enzyme source was homogenized in a buffer (pH 6.5) containing 20 mM bisTris, 2 mM EDTA (ethylenediamine tetraacetate), 0.1 mM PMSF (phenylmethylsulfonyl fluoride), 5 mM 2-mercaptoethanol, 0.001 mM pepstatin, and 0.01 mM leupeptin and was centrifuged at 30,000×G for 30 minutes to obtain a supernatant, which was applied to an ion exchange column (Q-sepharose First Flow, Pharmacia Corp.) and was eluted with 0 to 1M sodium acetate. Partially purified isozymes were identified by observing the effects of conventional inhibitors.
Each PDE isozyme and the test compound dissolved in DMSO (dimethyl sulfoxide) were added to 50 mM Tris-HCl buffer containing 5 mM magnesium chloride. ^3 H-cAMP (for type III and IV PDE) or ^3 H-cGMP (for type I and V PDE) were added as substrates and were reacted at 30° C. for 30 minutes. The reaction was terminated by placing the test tube in boiling water of 100° C. for 5 minutes. The nucleotides formed by PDE were broken down by 5'-nucleotidase to ^3 H-adenosine or ^3 H-guanosine. The unreacted substrate and reaction product were separated through an ion-exchange column (QAE sephadex, Pharmacia Corp.) The eluted ^3 H-nucleoside was measured for its radioactivity by a liquid scintillation counter. The inhibiting activities of the compound of the present invention are shown by the IC50 value (M). Further, the inhibitory activities of the test samples against Type I, III, and V are 1/10 or less than that against type IV.

[1] = test system: antigen-induced bronchospasm in guinea pig; test: Inhibitory effect on antigen-induced bronchospasm (Konzett-Roessler, ovalbumin-sensitized); assay type: in vivo, guinea pig (Hartley male); conditions: Cavia porcellus; intravenous, 10 minutes before antigen (0.2 mg/kg OA i.v.); read-out: Action for suppressing antigen-induced bronchospasms ED50
Method: A Hartley male guinea pig was sensitized by intramuscular administration of […] Ovalbumin (OA) on first day and fourth day, and used after 24th day. A trachial canula was introduced in the guinea pig anesthetized with pentobarbital and artificial ventilation was performed 25 to 29 days after the first sensitization. The overflow of the ventilation was measured by the Konzett-Roessler method while 0.2 mg/kg OA were administered intravenously. The test compound was dissolved in polyethylene glycol 400 and intravenously administered 10 minutes before administration of the antigens.

rat neutrophils = test: Inhibition of super oxide anion release from rat neutrophils (A23187-stimulated chemiluminescence); assay type: cell-based, rat (Wister); conditions: Neutrophil, stimulated with 0.3 μM calcium ionophore A23187, read-out: Inhibitory action of super oxide anion release from rat neutrophils IC50
Method: The release of super oxide anions was measured so as to study the inhibitory effects of the compound on inflammatory leukocytes, that is, neutrophils.
Blood sample was obtained from Wister rats anesthetized with ether. It was superposed on a blood cell separation solution (Polymorphoprep 1.113, made by Naicomet Co. (phonetic)) and the neutrophils were separated by centrifugation. The neutrophils were resuspended in a Hank's balanced salt solution at a concentration of 0.5×10^4 cell/ml. 0.1 mM of Lusigenin and the test substance dissolved in DMSO were added to 2 ml of the cell-suspension. The chemiluminescence generated by stimulation of 0.3 μM calcium ionophore A23187 was measured by a chemiluminescence reader so as to evaluate the release of super oxide anions.

SMILES	IC50 (Type IV PDE)	ED50 [1]	IC50 (rat neutrophils)
COc1ccc(C2(C)CCN(C)C(=O)O2)cc1OCC1CC1 (stereo not drawn) [Compound No. 51, 6-(3-cyclopropylmethyloxy-4-methoxyphenyl)-3,6-dimethyl-3,4,5,6-tetrahydro-2H-1,3-oxazin-2-one]	1.9 µM	2.23 mg/kg	–
COc1ccc(C2CCNC(=O)O2)cc1OCC1(c2ccccc2)CC1 (stereo not drawn) [Compound No. 56, 6-[4-methoxy-3-[(1-phenylcyclopropyl)methyloxy]phenyl]-3,4,5,6-tetrahydro-2H-1,3-oxazin-2-one]	0.94 µM	1.72 mg/kg	–
COc1ccc(C2CCNC(=O)O2)cc1OC1Cc2ccccc2C1 (stereo not drawn) [Compound No. 24, 6-[3-(2-indanyloxy)-4-methoxyphenyl]-3,4,5,6-tetrahydro-2H-1,3-oxazin-2-one]	0.13 µM	1.6 mg/kg	–
COc1ccc(C2CCNC(=O)O2)cc1OCC1CCC1 (stereo not drawn) [Compound No. 61, 6-(3-cyclobutylmethyloxy-4-methoxyphenyl)-3,4,5,6-tetrahydro-2H-1,3-oxazin-2-one]	3.2 µM	1.84 mg/kg	–
COc1ccc(C2(C)CCN(C)C(=O)O2)cc1OC1Cc2ccccc2C1 (stereo not drawn) [Compound No. 43, 3,6-dimethyl-6-[3-(2-indanyloxy)-4-methoxyphenyl]-3,4,5,6-tetrahydro-2H-1,3-oxazin-2-one]	0.066 µM	0.29 mg/kg	–
COc1ccc(C2CCN(Cc3cccnc3)C(=O)O2)cc1OC1CCCC1 (stereo not drawn) [Compound No. 20, 6-(3-cyclopentyloxy-4-methoxyphenyl)-3-(3-pyridylmethyl)-3,4,5,6-tetrahydro-2H-1,3-oxazin-2-one]	3.5 µM	8.5 mg/kg	–
COc1ccc(C2(C)CCNC(=O)O2)cc1OCCc1ccccc1 (stereo not drawn) [Compound No. 46, 6-(4-methoxy-3-phenethyloxyphenyl)-6-methyl-3,4,5,6-tetrahydro-2H-1,3-oxazin-2-one]	0.49 µM	11.4 mg/kg	–
COc1ccc(C2CCN(Cc3ccccc3)C(=O)O2)cc1OC (stereo not drawn) [Compound No. 9, 3-benzyl-6-(3 4-dimethoxyphenyl)-3,4,5,6-tetrahydro-2H-1,3-oxazin-2-one]	22 µM	–	2.3 µM
COc1ccc(C2(C)CCNC(=O)O2)cc1OC1Cc2ccccc2C1 (stereo not drawn) [Compound No. 40, 6-[3-(2-indanyloxy)-4-methoxyphenyl]-6-methyl-3,4,5,6-tetrahydro-2H-1,3-oxazin-2-one]	0.05 µM	0.47 mg/kg	–
COc1ccc(C2CCN(C)C(=O)O2)cc1OCC1CC1 (stereo not drawn) [Compound No. 49, 6-(3-cyclopropylmethyloxy-4-methoxyphenyl)-3-methyl-3,4 5,6-tetrahydro-2H-1,3-oxazin-2-one]	2 µM	3.1 mg/kg	–
COc1ccc(C2CCN(C)C(=O)O2)cc1OCC1(c2ccccc2)CC1 (stereo not drawn) [Compound No. 57, 6-[4-methoxy-3-[(1-phenylcyclopropyl)methyloxy]phenyl]-3-methyl-3,4,5,6-tetrahydro-2H-1,3-oxazin-2-one]	1.3 µM	15.9 mg/kg	–
COc1ccc(C2CCNC(=O)O2)cc1OCCc1ccccc1 (stereo not drawn) [Compound No. 23, 6-(4-methoxy-3-phenethyloxyphenyl)-3,4,5,6-tetrahydro-2H-1,3-oxazin-2-one]	1.5 µM	13.6 mg/kg	–
COc1ccc(C2(C)CCN(C)C(=O)O2)cc1OCC(C)C (stereo not drawn) [Compound No. 82, 3,6-dimethyl-6-[4-methoxy-3-(2-methylpropoxy)phenyl]-3,4,5,6-tetrahydro-2H-1,3-oxazin-2-one]	1.9 µM	0.045 mg/kg	–
COc1ccc(C2CCN(C)C(=O)O2)cc1OCC(C)C (stereo not drawn) [Compound No. 66, 6-[4-methoxy-3-(2-methylpropoxy)phenyl]-3-methyl-3,4,5,6-tetrahydro-2H-1,3-oxazin-2-one]	3.8 µM	0.051 mg/kg	–
COc1ccc(C2CCN(C)C(=O)O2)cc1OC1Cc2ccccc2C1 (stereo not drawn) [Compound No. 25, 6-[3-(2-indanyloxy)-4-methoxyphenyl]-3-methyl-3,4,5,6-tetrahydro-2H-1,3-oxazin-2-one]	0.19 µM	0.061 mg/kg	–
COc1ccc(C2CCNC(=O)O2)cc1OC (stereo not drawn) [Compound No. 1, 6-(3,4-dimethoxyphenyl)-3,4,5,6-tetrahydro-2H-1,3-oxazin-2-one]	10 µM	–	8.8 µM
COc1ccc(C2CCN(C)C(=O)O2)cc1OC1CCCC1 (stereo not drawn) [Compound No. 10, 6-(3-Cyclopentyloxy-4-methoxyphenyl)-3-methyl-3,4,5,6-tetrahydro-2H-1,3-oxazin-2-one]	1.3 µM	0.95 mg/kg	0.09 µM
COc1ccc(C2CCNC(=O)O2)cc1OC1CCCC1 (stereo not drawn) [Compound No. 2, 6-(3-cyclopentyloxy-4-methoxyphenyl)-3,4,5,6-tetrahydro-2H-1,3-oxazin-2-one]	1.2 µM	0.23 mg/kg	0.55 µM
COc1ccc(C2CCN(Cc3ccc(Br)cc3)C(=O)O2)cc1OC1CCCC1 (stereo not drawn) [Compound No. 11, 3-(4-bromobenzyl)-6-(3-cyclopentyloxy-4-methoxyphenyl)-3,4,5,6-tetrahydro-2H-1,3-oxazin-2-one]	1.4 µM	3.1 mg/kg	0.05 µM
COc1ccc(C2CCN(C)C(=O)O2)cc1OC (stereo not drawn) [Compound No. 8, 6-(3,4-dimethoxyphenyl)-3-methyl-3,4,5,6-tetrahydro-2H-1,3-oxazin-2-one]	19 µM	–	4.1 µM
COc1ccc(C2CCNC(=O)O2)cc1OCC(C)C (stereo not drawn) [Compound No. 65, 6-[4-methoxy-3-(2-methylpropoxy)phenyl]-3,4,5,6-tetrahydro-2H-1,3-oxazin-2-one]	2.2 µM	0.22 mg/kg	–
COc1ccc(C2CCNC(=O)O2)cc1OCC1CCCC1 (stereo not drawn) [Compound No. 76, 6-(3-cyclopentylmethyloxy-4-methoxyphenyl)-3,4,5,6-tetrahydro-2H-1,3-oxazin-2-one]	2.9 µM	0.27 mg/kg	–
CCC1(c2ccc(OC)c(OC3CCCC3)c2)CCNC(=O)O1 (stereo not drawn) [Compound No. 26, 6-(3-cyclopentyloxy-4-methoxyphenyl)-6-ethyl-3,4,5,6-tetrahydro-2H-1,3-oxazin-2-one]	3.5 µM	2.4 mg/kg	–
COc1ccc(C2CCNC(=O)O2)cc1OCC1CC1 (stereo not drawn) [Compound No. 4, 6-(3-cyclopropylmethyloxy-4-methoxyphenyl)-3,4,5,6-tetrahydro-2H-1,3-oxazin-2-one]	3.2 µM	0.23 mg/kg	–
COc1ccc(C2(C)CCN(C)C(=O)O2)cc1OC1CCCC1 (stereo not drawn) [Compound No. 21, 6-(3-cyclopentyloxy-4-methoxyphenyl)-3,6-dimethyl-3,4,5,6-tetrahydro-2H-1,3-oxazin-2-one]	0.66 µM	0.29 mg/kg	–
CCN1CCC(c2ccc(OC)c(OC3Cc4ccccc4C3)c2)OC1=O (stereo not drawn) [Compound No. 71, 3-ethyl-6-[3-(2-indanyloxy)-4-methoxyphenyl]-3,4,5,6-tetrahydro-2H-1,3-oxazin-2-one]	0.31 µM	2.67 mg/kg	–
CCN1CCC(c2ccc(OC)c(OC3CCCC3)c2)OC1=O (stereo not drawn) [Compound No. 28, 6-(3-cyclopentyloxy-4-methoxyphenyl)-3-ethyl-3,4,5,6-tetrahydro-2H-1,3-oxazin-2-one]	1.7 µM	7.4 mg/kg	–
COc1ccc(C2(C)CCNC(=O)O2)cc1OC1CCCC1 (stereo not drawn) [Compound No. 6, 6-(3-cyclopentyloxy-4-methoxyphenyl)-6-methyl-3,4,5,6-tetrahydro-2H-1,3-oxazin-2-one]	1.1 µM	0.3 mg/kg	–
COc1ccc(C2CCN(Cc3ccccn3)C(=O)O2)cc1OC1CCCC1 (stereo not drawn) [Compound No. 16]	5.5 µM	2.1 mg/kg	–
COc1ccc(C2(C)CCNC(=O)O2)cc1OCC(C)C (stereo not drawn) [Compound No. 81, 6-[4-methoxy-3-(2-methylpropoxy)phenyl]-6-methyl-3,4,5,6-tetrahydro-2H-1,3-oxazin-2-one]	1.3 µM	0.028 mg/kg	–

Source: patent publication US6251897A, “6-phenyltetrahydro-1,3-oxazin-2-one derivative and pharmaceutical composition containing the same” (Nikken Chemicals Co., LTD, priority 1996, dated 2001)
